Test results published in publication PMC6934184, “Selective DNA-PKcs inhibition extends the therapeutic index of localized radiotherapy and chemotherapy” (The Journal of Clinical Investigation, 2019).

Biological target: T1, DYRK4 (Homo sapiens, UniProt Q9NR20)
T1 construct: purchased Thermo Fisher Scientific (Life Technologies) SelectScreen
Test: SelectScreen Z'LYTE
Type: biochemical
Outline: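 Percent values come from Thermo SelectScreen profiling of NU5455, combining activity and binding assays. CSF1R was run in Z'LYTE format at Km app ATP, and CAMK1 in Adapta format with ATP listed at 10.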

T1 sequence (Q9NR20 whole entry): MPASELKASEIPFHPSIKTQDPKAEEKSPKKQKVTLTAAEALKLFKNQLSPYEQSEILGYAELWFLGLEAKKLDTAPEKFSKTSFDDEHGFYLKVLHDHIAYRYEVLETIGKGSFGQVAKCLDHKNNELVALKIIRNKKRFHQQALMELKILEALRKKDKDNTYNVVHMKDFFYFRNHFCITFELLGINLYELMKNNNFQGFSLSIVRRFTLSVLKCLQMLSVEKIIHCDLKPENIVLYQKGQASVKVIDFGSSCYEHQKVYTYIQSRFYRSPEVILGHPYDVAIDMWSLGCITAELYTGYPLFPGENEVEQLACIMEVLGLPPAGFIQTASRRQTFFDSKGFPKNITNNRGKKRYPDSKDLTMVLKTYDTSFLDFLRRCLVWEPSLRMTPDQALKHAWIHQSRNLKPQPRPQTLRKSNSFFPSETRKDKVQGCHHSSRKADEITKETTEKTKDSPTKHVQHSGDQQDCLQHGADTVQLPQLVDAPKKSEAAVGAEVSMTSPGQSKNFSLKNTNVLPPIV

CN(C(=O)CN1CCOCC1)c1ccc2sc3c(-c4cccc5c(=O)cc(N6CC7CCC(C6)O7)oc45)cccc3c2c1 [NU5455]
inhibition at 1 µM: 0.3%
